Test results as given in US9113629B2, “4-amino-6-(4-substituted-phenyl)-picolinates and 6-amino-2-(4-substituted-phenyl)-pyrimidine-4-carboxylates and their use as herbicides” (DOW AGROSCIENCES LLC, priority 2013, dated 2015).
Like-named read-outs stand apart in the source and are kept apart here.

Legend:
[1] = tested on: Key Broadleaf Weed and Crop Species; experiment: Post-emergent Test II herbicidal activity (Table 5); format: in vivo; settings: post-emergence, 336 h, 14 days after application; for pest or weed control at 70 g/ha: application rate 70 g ai/ha; for pest or weed control at 140 g/ha: application rate 140 g ai/ha
How it was run: (§1)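 Post-emergence foliar spray, 187 L/ha, track sprayer at 43 cm above canopy. Carrier: acetone/water/IPA/DMSO/Atplus 411F/Triton X-155. Plants at 1st–2nd true leaf; subirrigated afterwards; % injury scored visually at 14 d.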

[2] = tested on: Key Grass and Sedge Weeds as well as Grass Crops; experiment: Post-emergent Test II herbicidal activity (Table 6); format: in vivo; settings: post-emergence, 336 h; for pest or weed control at 70 g/ha: 70 g ai/ha; for pest or weed control at 140 g/ha: 140 g ai/ha
How it was run: as §1

[3] = ABUTH: velvetleaf (Abutilon theophrasti), read-out: Visual Growth Reduction (%) 14 Days After Application, ABUTH
[4] = AMARE: redroot pigweed (Amaranthus retroflexus), read-out: Visual Growth Reduction (%) 14 Days After Application, AMARE
[5] = BRSNN: oilseed-rape, canola (Brassica napus), read-out: Visual Growth Reduction (%) 14 Days After Application, BRSNN
[6] = CHEAL: lambsquarters (Chenopodium album), read-out: Visual Growth Reduction (%) 14 Days After Application, CHEAL
[7] = EPHHL: wild poinsettia (Euphorbia heterophylla), read-out: Visual Growth Reduction (%) 14 Days After Application, EPHHL
[8] = HELAN: sunflower (Helianthus annuus), read-out: Visual Growth Reduction (%) 14 Days After Application, HELAN
[9] = VIOTR: wild pansy (Viola tricolor), read-out: Visual Growth Reduction (%) 14 Days After Application, VIOTR
[10] = CYPES: yellow nutsedge (Cyperus esculentus), read-out: Visual Growth Reduction (%) 14 Days After Application, CYPES
[11] = DIGSA: crabgrass (Digitaria sanguinalis), read-out: Visual Growth Reduction (%) 14 Days After Application, DIGSA
[12] = ECHCG: barnyardgrass (Echinochloa crus-galli), read-out: Visual Growth Reduction (%) 14 Days After Application, ECHCG
[13] = ORYSA: rice (Oryza sativa), crop, read-out: Visual Growth Reduction (%) 14 Days After Application, ORYSA
[14] = SETFA: giant foxtail (Setaria faberi), read-out: Visual Growth Reduction (%) 14 Days After Application, SETFA
[15] = SORVU: grain sorghum (Sorghum vulgare), read-out: Visual Growth Reduction (%) 14 Days After Application, SORVU
[16] = TRZSS (wheat, Triticum aestivum), crop, read-out: Visual Growth Reduction (%) 14 Days After Application, TRZSS
[17] = ZEAMX: maize, corn (Zea mays), crop, read-out: Visual Growth Reduction (%) 14 Days After Application, ZEAMX

| Compound | pest or weed control at 70 g/ha [1, 3] | pest or weed control at 140 g/ha [1, 3] | pest or weed control at 140 g/ha [1, 4] | pest or weed control at 70 g/ha [1, 5] | pest or weed control at 140 g/ha [1, 5] | pest or weed control at 70 g/ha [1, 6] | pest or weed control at 140 g/ha [1, 6] | pest or weed control at 70 g/ha [1, 7] | pest or weed control at 140 g/ha [1, 7] | pest or weed control at 70 g/ha [1, 8] | pest or weed control at 140 g/ha [1, 8] | pest or weed control at 70 g/ha [1, 9] | pest or weed control at 140 g/ha [1, 9] | pest or weed control at 70 g/ha [2, 10] | pest or weed control at 140 g/ha [2, 10] | pest or weed control at 70 g/ha [2, 11] | pest or weed control at 140 g/ha [2, 11] | pest or weed control at 70 g/ha [2, 12] | pest or weed control at 140 g/ha [2, 12] | pest or weed control at 70 g/ha [2, 13] | further results |
| --- | --- | --- | --- | --- | --- | --- | --- | --- | --- | --- | --- | --- | --- | --- | --- | --- | --- | --- | --- | --- | --- |
| N#Cc1ccc(-c2nc(C(=O)O)c(Cl)c(N)c2F)cc1F [Compound 156] | 60 to 74% | 75 to 84% | 95 to 100% | 75 to 84% | 85 to 94% | 95 to 100% | 95 to 100% | 85 to 94% | 85 to 94% | 95 to 100% | 95 to 100% | 60 to 74% | 60 to 74% | 60 to 74% | 85 to 94% | 60 to 74% | 75 to 84% | 75 to 84% | 85 to 94% | 0 to 29% | pest or weed control at 70 g/ha [1, 4]: 95 to 100%; pest or weed control at 140 g/ha [2, 13]: 0 to 29%; pest or weed control at 70 g/ha [2, 14]: 85 to 94%; pest or weed control at 140 g/ha [2, 14]: 95 to 100%; pest or weed control at 70 g/ha [2, 15]: 60 to 74%; pest or weed control at 140 g/ha [2, 15]: 60 to 74%; pest or weed control at 70 g/ha [2, 16]: 45 to 59%; pest or weed control at 140 g/ha [2, 16]: 60 to 74%; pest or weed control at 70 g/ha [2, 17]: 75 to 84%; pest or weed control at 140 g/ha [2, 17]: 75 to 84% |
| COC(=O)c1nc(-c2ccc(C#N)cc2F)cc(N)c1Cl [Compound 16] | 85 to 94% | 95 to 100% | 95 to 100% | 0 to 29% | 0 to 29% | 95 to 100% | 95 to 100% | 95 to 100% | 95 to 100% | 95 to 100% | 95 to 100% | 30 to 44% | 30 to 44% | 95 to 100% | 95 to 100% | 60 to 74% | 75 to 84% | 75 to 84% | 95 to 100% | 0 to 29% | pest or weed control at 140 g/ha [2, 13]: 0 to 29%; pest or weed control at 70 g/ha [2, 14]: 45 to 59%; pest or weed control at 140 g/ha [2, 14]: 60 to 74%; pest or weed control at 70 g/ha [2, 15]: 60 to 74%; pest or weed control at 140 g/ha [2, 15]: 60 to 74%; pest or weed control at 70 g/ha [2, 16]: 30 to 44%; pest or weed control at 140 g/ha [2, 16]: 45 to 59%; pest or weed control at 70 g/ha [2, 17]: 85 to 94%; pest or weed control at 140 g/ha [2, 17]: 85 to 94% |
